{"source": "ChEMBL document CHEMBL1154793", "about": "“The lecanindoles, nonsteroidal progestins from the terrestrial fungus Verticillium lecanii 6144” (J Nat Prod, 2009)", "key": {"[1]": {"target": "T1, Mineralocorticoid receptor (Homo sapiens, UniProt P08235)", "T1 sequence (P08235 whole entry)": "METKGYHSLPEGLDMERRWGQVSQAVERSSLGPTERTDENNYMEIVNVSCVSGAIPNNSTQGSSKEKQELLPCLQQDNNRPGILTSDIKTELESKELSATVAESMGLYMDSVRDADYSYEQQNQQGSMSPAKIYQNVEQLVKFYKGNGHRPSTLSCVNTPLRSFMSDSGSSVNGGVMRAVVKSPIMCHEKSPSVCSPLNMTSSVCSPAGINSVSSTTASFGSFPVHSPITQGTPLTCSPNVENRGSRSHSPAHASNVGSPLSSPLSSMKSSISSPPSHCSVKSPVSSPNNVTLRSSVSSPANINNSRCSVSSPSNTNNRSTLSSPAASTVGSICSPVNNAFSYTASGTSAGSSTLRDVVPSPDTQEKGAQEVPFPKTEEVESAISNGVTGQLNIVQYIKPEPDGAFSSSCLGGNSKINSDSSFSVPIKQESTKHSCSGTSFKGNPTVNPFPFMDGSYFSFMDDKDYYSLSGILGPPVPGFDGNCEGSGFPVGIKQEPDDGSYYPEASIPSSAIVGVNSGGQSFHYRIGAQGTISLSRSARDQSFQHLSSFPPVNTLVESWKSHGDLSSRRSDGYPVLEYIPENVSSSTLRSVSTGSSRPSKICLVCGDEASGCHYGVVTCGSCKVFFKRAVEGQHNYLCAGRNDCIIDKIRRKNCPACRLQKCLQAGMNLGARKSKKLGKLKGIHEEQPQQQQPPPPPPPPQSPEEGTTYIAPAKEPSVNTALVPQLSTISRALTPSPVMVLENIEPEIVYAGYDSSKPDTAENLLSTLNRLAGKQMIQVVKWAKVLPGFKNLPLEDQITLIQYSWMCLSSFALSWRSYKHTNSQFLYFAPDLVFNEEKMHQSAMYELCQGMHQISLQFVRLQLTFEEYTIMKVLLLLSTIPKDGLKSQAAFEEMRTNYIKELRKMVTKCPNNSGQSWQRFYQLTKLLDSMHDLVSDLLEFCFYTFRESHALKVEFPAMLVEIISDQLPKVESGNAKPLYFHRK", "test": "Agonist activity at mineralocorticoid receptor ligand binding domain expressed in african green monkey COS7 cells co-transfected with Gal4-LBD up to 10 uM by luciferase reporter gene assay", "format": "cell-based", "conditions": "cos-7; call rule not given here"}, "[2]": {"target": "T2, Estrogen receptor (Homo sapiens, UniProt P03372)", "T2 sequence (P03372 whole entry)": "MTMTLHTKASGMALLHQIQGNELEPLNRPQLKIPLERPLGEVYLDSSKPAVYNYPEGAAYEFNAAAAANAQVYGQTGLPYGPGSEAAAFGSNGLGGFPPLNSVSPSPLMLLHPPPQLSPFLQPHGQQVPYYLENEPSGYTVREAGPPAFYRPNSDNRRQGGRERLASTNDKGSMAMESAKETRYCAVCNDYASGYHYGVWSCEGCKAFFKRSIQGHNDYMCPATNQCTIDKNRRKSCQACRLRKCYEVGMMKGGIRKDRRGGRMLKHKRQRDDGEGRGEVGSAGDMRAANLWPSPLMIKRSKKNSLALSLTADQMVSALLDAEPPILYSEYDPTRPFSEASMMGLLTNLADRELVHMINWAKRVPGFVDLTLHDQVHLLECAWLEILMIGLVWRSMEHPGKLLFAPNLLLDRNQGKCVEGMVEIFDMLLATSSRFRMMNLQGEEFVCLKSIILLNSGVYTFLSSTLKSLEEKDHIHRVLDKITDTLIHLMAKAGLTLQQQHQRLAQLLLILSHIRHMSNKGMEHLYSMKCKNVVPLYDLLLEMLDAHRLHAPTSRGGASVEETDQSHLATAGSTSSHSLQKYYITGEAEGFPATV", "test": "Agonist activity at estrogen receptor alpha ligand binding domain expressed in african green monkey COS7 cells co-transfected with Gal4-LBD by luciferase reporter gene assay", "format": "cell-based, COS-7"}, "[3]": {"target": "T3, Glucocorticoid receptor (Homo sapiens, UniProt P04150)", "T3 sequence (P04150 whole entry)": "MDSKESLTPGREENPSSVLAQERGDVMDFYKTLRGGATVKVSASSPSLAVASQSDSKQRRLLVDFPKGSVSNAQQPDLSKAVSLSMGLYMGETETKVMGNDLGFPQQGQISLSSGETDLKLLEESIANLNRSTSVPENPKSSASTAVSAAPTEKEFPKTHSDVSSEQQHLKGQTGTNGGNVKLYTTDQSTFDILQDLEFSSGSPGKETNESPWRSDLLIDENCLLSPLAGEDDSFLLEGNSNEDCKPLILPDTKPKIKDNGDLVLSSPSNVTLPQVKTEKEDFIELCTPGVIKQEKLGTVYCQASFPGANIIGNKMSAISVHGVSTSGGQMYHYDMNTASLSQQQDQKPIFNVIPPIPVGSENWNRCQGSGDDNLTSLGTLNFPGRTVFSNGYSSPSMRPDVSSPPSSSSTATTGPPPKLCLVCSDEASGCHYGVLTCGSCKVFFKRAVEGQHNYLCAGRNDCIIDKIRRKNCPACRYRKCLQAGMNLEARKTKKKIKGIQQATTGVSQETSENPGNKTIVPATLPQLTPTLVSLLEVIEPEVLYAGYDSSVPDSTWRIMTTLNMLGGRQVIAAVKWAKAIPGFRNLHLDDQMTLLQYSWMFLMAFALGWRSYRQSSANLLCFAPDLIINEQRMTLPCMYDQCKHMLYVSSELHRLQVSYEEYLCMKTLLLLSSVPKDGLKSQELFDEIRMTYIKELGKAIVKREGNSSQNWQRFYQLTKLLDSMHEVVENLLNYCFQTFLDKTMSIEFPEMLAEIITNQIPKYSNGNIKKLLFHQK", "test": "Agonist activity at glucocorticoid receptor ligand binding domain expressed in african green monkey COS7 cells co-transfected with Gal4-LBD up to 10 uM by luciferase reporter gene assay", "format": "cell-based", "conditions": "cos-7"}}}
{"smiles": "CC1(C)C(=O)CC[C@]2(C)[C@@]3(C)c4[nH]c5ccccc5c4C[C@@H]3CC[C@@]12O", "note": "[LECANINDOLE B]", "values": [{"measurement": "EC50", "setting": "[1]", "result": "Not Active"}, {"measurement": "EC50", "setting": "[2]", "result": "> 10", "unit": "µM"}, {"measurement": "EC50", "setting": "[3]", "result": "Not Active"}]}
{"smiles": "CC1(C)[C@H](O)CC[C@]2(C)[C@@]3(C)c4[nH]c5ccccc5c4C[C@@H]3CC[C@@]12O", "note": "[LECANINDOLE D]", "values": [{"measurement": "EC50", "setting": "[1]", "result": "Not Active"}, {"measurement": "EC50", "setting": "[2]", "result": "> 10", "unit": "µM"}, {"measurement": "EC50", "setting": "[3]", "result": "Not Active"}]}
